Data set [1] in a line: Tissue distribution and oral exposure in ICR mice (LC-MS). The note with it: oral 5 mg/kg; for AUC(0-t): mouse. Format: in vivo. As to the method:
The tissue distribution experiment of compounds XYF573c and LSX472a of the present invention in ICR mice was carried out, and their distribution in plasma and organs and oral exposure (AUC0-8h) were compared.
ICR mice were purchased from Shanghai Experimental Animal Research Center.
The concentrations of the compounds in plasma and various organs of ICR mice were detected by LC-MS.
During the experiment, the mice were fasted for more than 12 hours, had free access to water, and provided with food 2 hours after administration.
Both compounds XYF573c and LSX472a were administered orally, the dose was 5 mg/kg, and the solvent was DMSO/0.5% HPMC (5/95, v/v), N=3.
At 0.5 h, 2 h and 8 h after oral administration, about 20 μL of mouse heart blood, portal vein plasma or 20 mg of liver, lung, and ileum tissues were taken in clean centrifuge tubes, 200 μL of MeOH/ACN (50/50, v/v) was added and spun in a vortex mixer for 1 min. The mixtures were centrifuged at 15,000 rpm for 5 min and 20 μL of supernatants were mixed with 20 μL of ACN/water (1/1, v/v) and quantified by LC-MS.
The values of AUC0-8h were calculated by trapezoidal method based on the concentrations of the compound at 0.5 h, 2 h and 8 h.

The test system of data set [2] is inflammatory bowel disease. The settings on record: trial terminated; cited from earlier work.
In data set [3] the target is T1, GPR84 (Homo sapiens, UniProt Q9NQS5). Put plainly: GPR84 antagonistic activity, calcium flux (Fluo-4) assay with agonist 6-OAU. The class given is cell-based. Further details: expressed in transfected cells; host or cells: HEK293. As to the method: The human GPR84 cell line was obtained by transfecting a HEK293 cell line with a plasmid encoding GPR84 and Gα16 proteins. Fluorescent dye Fluo-4AM was purchased from Invitrogen.
Intracellular Ca^2+ ion is a very important second messenger of G protein-coupled receptor signaling pathway. […] Fluo-4 is a Ca^2+ ion-specific fluorescent probe that binds quantitatively to Ca^2+ ions and emits fluorescence.
Detection of receptor inhibitory effect by GPR84 antagonist: After incubated with fluorescent dye Fluo-4, GPR84 cells were incubated with different concentrations of antagonistic compounds for a period of time to occupy the binding site of agonist to GPR84 (antagonistic binding site). A certain concentration of agonist (6-n-octylaminouracil, 6-OAU) was added to compete with the antagonist compound for binding sites. […] The half-inhibitory concentration (IC50) of the compound was calculated by using GraphPad PRISM software.
The above ingredients were weighed and dissolved in ultrapure water. pH was adjusted to 7.4 by using hydrochloric acid or NaOH solution. The mixture was filtered and stored at 4° C. for one month.
The buffer was prepared on site.
The cells were seeded in a 96-well plate at a density of 4×10^4 cells/well. After 24 hours of culture, the culture medium was removed, and 40 μL of Fluo-4AM fluorescent staining solution was added to each well and incubated in a 37° C. incubator for 40 minutes. After the dye was aspirated and discarded, 50 μL of the tested compound was added and incubated at room temperature for 10 minutes.
(Calcium flux is commonly read through the fluorescence of an indicator in the cells.)
Target sequence in this assay (Q9NQS5 whole entry): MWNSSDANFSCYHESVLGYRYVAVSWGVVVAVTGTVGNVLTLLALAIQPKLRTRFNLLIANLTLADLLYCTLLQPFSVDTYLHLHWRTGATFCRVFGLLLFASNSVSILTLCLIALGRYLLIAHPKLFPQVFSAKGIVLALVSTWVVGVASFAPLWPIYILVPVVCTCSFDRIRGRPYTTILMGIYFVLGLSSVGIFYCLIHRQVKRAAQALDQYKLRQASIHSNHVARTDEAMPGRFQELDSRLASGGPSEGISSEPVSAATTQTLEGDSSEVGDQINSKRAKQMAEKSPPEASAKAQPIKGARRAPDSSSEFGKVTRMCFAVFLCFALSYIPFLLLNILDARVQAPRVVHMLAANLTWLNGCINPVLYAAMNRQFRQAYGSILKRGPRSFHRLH

In data set [4] the target is T2, GPR120 (Homo sapiens, UniProt Q5NUL3).
T2 sequence (Q5NUL3 1-361): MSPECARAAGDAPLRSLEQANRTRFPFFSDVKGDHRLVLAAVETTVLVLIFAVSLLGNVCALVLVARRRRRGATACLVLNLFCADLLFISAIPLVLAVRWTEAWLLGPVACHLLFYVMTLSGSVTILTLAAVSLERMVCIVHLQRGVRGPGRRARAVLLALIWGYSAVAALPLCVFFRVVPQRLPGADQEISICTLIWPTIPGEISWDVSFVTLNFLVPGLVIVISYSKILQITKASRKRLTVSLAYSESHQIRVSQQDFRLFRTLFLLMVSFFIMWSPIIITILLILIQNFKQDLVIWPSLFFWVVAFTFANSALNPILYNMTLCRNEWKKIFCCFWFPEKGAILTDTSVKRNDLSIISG
The settings on record: cited from earlier work.

Data set [5] addresses GPR40 (Homo sapiens, UniProt O14842). The settings on record: cited from earlier work.
In data set [6] the target is T1, GPR84. The settings on record: cited from earlier work.
Target sequence in this assay (Q9NQS5 whole entry, species assumed): as the sequence (Q9NQS5 whole entry) above
Where [7] appears, read: IC50, HEK293 cells with GPR84 and Gα16, Fluo-4 calcium signal, agonist 6-OAU around EC80.

Where two headings read alike, the source gives them in different places.

GPR40, sequence (O14842 whole entry, species assumed): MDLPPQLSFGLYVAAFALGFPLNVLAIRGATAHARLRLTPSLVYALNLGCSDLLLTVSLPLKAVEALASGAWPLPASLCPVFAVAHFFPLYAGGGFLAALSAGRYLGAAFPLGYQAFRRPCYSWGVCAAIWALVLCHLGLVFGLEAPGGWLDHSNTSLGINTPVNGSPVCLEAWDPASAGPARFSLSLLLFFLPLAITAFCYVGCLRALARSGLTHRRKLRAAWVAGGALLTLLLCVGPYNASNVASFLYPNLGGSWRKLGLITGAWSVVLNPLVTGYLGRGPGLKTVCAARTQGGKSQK

As to `COc1cccc2c1Sc1ccccc1C=C2OP(=O)(O)O[C@@H]1C[C@@H]2CC[C@@]1(C)C2(C)C` [LSX472a], the AUC(0-t) in data set [1] (heart plasma, read-out: AUC0-8h, Heart plasma) was 7750 ng·h/mL; in data set [1] (portal vein plasma, read-out: AUC0-8h, Portal vein plasma), 8820 ng·h/mL. The “exposure in the intestinal tract (such as Ileum) compared to XYF573c” value in data set [1] was “significantly increased”. In addition, in data set [1] (ileum), the “AUC0-8h, Ileum” value is 62902.60 ng·h/g. Besides, the “AUC0-8h, Liver” value in data set [1] (liver) stood at 4387.83 ng·h/g. Further, the “AUC0-8h, Lung” value in data set [1] (lung) was found to be 745.34 ng·h/g. Also, the “increase in oral exposure (Plasma AUC0-8h) compared to XYF573c” value in data set [1] (plasma) is given as 13 fold.

Turning to `O=c1nc(OC[C@@H]2COCCO2)cc2n1CCc1cc(C#CC3CC3)ccc1-2` [GLPG1205], the “efficacy in phase II clinical study versus placebo” value in data set [2] is “lack of significant difference in efficacy from the placebo group”. As to `CCCCCCOP(=O)(O)OC1=Cc2ccccc2Sc2c(OC)cccc21` [LSX420-3], the IC50 (in general, the midpoint of a concentration-inhibition curve) in data set [3] (setting [7]) was 100 to 1000 nM. As for `COc1cccc2c1Oc1ccccc1C=C2OP(=O)(O)O[C@@H]1C(C)(C)[C@@H]2CC[C@@]1(C)C2` [LSX456j], the IC50 in data set [3] (setting [7]) lay within 1000 to 10000 nM. On the same count and under the same terms, the value for `COc1cccc2c1Sc1ccccc1C=C2OP(=O)(O)OC12CC3CC(C1)C(Nc1c(C(N)=O)cnc4[nH]ccc14)C(C3)C2` (stereo not drawn) [LSX644] was 1000 to 10000 nM; that for `CC1(C)[C@@H]2CC[C@@](C)(C2)[C@@H]1OP(=O)(O)OC1=Cc2c(F)cccc2Sc2ccccc21` [LSX460j] was 100 to 1000 nM. The same measure, in the same setting: the result for `COc1cccc2c1Sc1ccccc1C=C2OP(=O)(O)OC12CC3CC(C)(CC(C)(C3)C1)C2` [LSX498] reads 100 to 1000 nM; that for `COc1cccc2c1Sc1ccccc1C=C2OP(=O)(O)O[C@H]1C[C@@H](C)CC[C@@H]1C(C)C` [LSX474b], below 100 nM. Still for that read-out and setting: the result for `CCCCCCCCCOP(=O)(O)OC1=Cc2ccccc2Sc2c(OC)cccc21` [LSX462-3] reads 100 to 1000 nM; that for `CCCCCCCCOP(=O)(O)OC1=Cc2c(Cl)cccc2Sc2ccccc21` [LSX452], 100 to 1000 nM; that for `CC1(C)[C@@H]2CC[C@@](C)(C2)[C@@H]1OP(=O)(O)OC1=Cc2ccccc2Oc2ccccc21` [LSX426j], 1000 to 10000 nM. As for `CCCCCc1cc(CCCCC)cc(CC(=O)[O-])c1.[Na+]` [PBI-4547, 3,5-di-n-pentyl phenylacetate sodium], the “agonistic activity on GPR120” value in data set [4] is recorded as “agonistic activity”. In addition, the “agonistic activity on GPR40” value in data set [5] is “agonistic activity”. For the same compound, the “antagonistic activity on GPR84” value in data set [6] is reported as “at the micromolar level”. As to `COc1ccc(OP(=O)(O)OC2=Cc3ccccc3Sc3c(OC)cccc32)cc1` [LSX442], in data set [3], the IC50 was in the range of 100 to 1000 nM.

The record behind these values is US20240342201A1, “ASYMMETRIC GPR84 ANTAGONIST AND USE THEREOF” (priority 2021, published 2024).
